System: expressed full length clones containing these insertions (KOR-3a, KOR-3b, KOR-3c)
Test: Preliminary binding of [3H]naloxone benzoylhydrazone to expressed full length KOR-3 splice variant clones
Parameters: species or system mouse
Settings: preliminary studies; expressed full length clones with mini-exon insertions (KOR-3a, KOR-3b, KOR-3c); radioligand

Q: With `C=CCN1CC[C@]23c4c5ccc(O)c4O[C@H]2/C(=N/NC(=O)c2ccccc2)CC[C@@]3(O)[C@H]1C5` [[^3H]naloxone benzolhydrazone] as the compound, how does the “binding of the kappa3 ligand by the expressed full length clones” value read?
A: quite well
